Experimental data taken from PMC7600679, “Benzoxazole-Based Metal Complexes to Reverse Multidrug Resistance in Bacteria” (Antibiotics, 2020).
≈ marks a conversion by molar mass, not a printed value. Like-named read-outs stand apart in the source and are kept apart here.

What was measured:
[1] = tested on: Chromobacterium violaceum 026; assay: Minimum inhibitory concentration (broth microdilution, CLSI); assay type: cell-based; details: C. violaceum 026
Experimental: (§1) The following bacterial strains were applied in the QS tests: C. violaceum 026 as sensor strain and E. cloacae 31298 isolated from clinical wound (used as N-acyl-homoserine lactone (AHL) producer); this strain induced pigment production by C. violaceum and is a model strain to study QS interactions.
(§2) The minimum inhibitory concentrations (MICs) of compounds were determined in 96-well plates based on the Clinical and Laboratory Standard Institute guidelines (CLSI guidelines). The compounds were diluted in 100 μL of MHB. Then, 10^−4 dilution of an overnight bacterial culture in 100 μL of medium were added to each well, with the exception of the medium control wells.

[2] = tested on: Enterobacter cloacae 31298; assay: as above; assay type: cell-based; details: E. cloacae 31298
Experimental: as §1, §2

[3] = tested on: Staphylococcus aureus ATCC 25923; assay: as above; assay type: cell-based; details: S. aureus ATCC 25923, 18 h, visual inspection
Experimental: (§3) The compounds were further investigated against two Gram-positive strains, S. aureus ATCC 25923 (MSSA), used as the methicillin susceptible reference strain, and the methicillin- and ofloxacin-resistant S. aureus 272123 clinical isolate (MRSA), which was given by Prof. Dr. Leonard Amaral (Institute of Hygiene and Tropical Medicine, Lisbon, Portugal).
as §2

[4] = tested on: E. coli AG100 A; assay: Real-time ethidium bromide accumulation (efflux pump inhibition); assay type: cell-based, Escherichia coli; details: compounds at ¼ MIC, EB 1 μg/mL, minute 30
Experimental: (§4) Since multidrug resistance EPs are very important factors contributing to multidrug resistance (MDR) in both Gram-positive and Gram-negative bacteria, the inhibition of these pumps could reverse the resistant phenotype and restore the activity of antibiotics. The effect of compounds on ethidium bromide (EB) accumulation was determined by the automated EB method. This assay was used to determine how much of the fluorescent dye and pump substrate EB was accumulated by the bacterial cells in the presence of the tested compounds. The real-time accumulation of EB was monitored for 30 min in both S. aureus and E. coli strains.
(§5) The accumulation of the efflux pump substrate EB was monitored by the automated EB method using a LightCycler real-time thermocycler (LightCycler 1.5, Roche, Indianapolis, IN, USA). An aliquot of an overnight culture of the S. aureus strains in TSB medium was inoculated into fresh TSB medium, and it was incubated until it reached an optical density (OD) of 0.6 at 600 nm. In the case of E. coli strains, the medium applied in the assay was LB broth; the preparation of the inoculum was similar to the one of S. aureus. The cells were washed with phosphate buffered saline (PBS; pH 7.4) and centrifuged at 13,000 × g for 3 min, the pellets were re-suspended in PBS (pH 7.4), and the OD was calibrated to 0.6 at 600 nm. The compounds were measured at ¼ MIC concentration (in double-concentrated form) to the EB solution in PBS. The final concentration of EB was determined according to the MIC and the fluorescent signal produced by this amount of EB. In the case of all strains, the concentration of EB was 1 μg/mL. Then, 10 μL of the EB solution plus the compound were pipetted into standard glass capillary tubes of 20 µL maximum volume (Roche, Indianapolis, USA), and 10 μL of bacterial culture (OD of 0.6 at 600 nm) were transferred to the capillaries. The capillaries containing the samples were placed into the carousel, and the fluorescence was monitored at the FL-2 channel in every minute on a real-time basis.
(§6) Based on the data obtained, the relative fluorescence index (RFI) of the last time point (minute 30) was determined as follows:RFI = (RFtreated − RFuntreated)/RFuntreated(1) where RFtreated is the relative fluorescence (RF) at the last time point of the EB retention curve in the presence of an inhibitor, and RFuntreated is the relative fluorescence at the last time point of the EB retention curve of the untreated control having the solvent control (DMSO).

[5] = tested on: E. coli AG100 A; assay: Minimum inhibitory concentration (broth microdilution, CLSI); assay type: cell-based, Escherichia coli; details: 18 h
Experimental: Wild-type E. coli K-12 AG100 strain (argE3 thi-1 rpsL xyl mtl Δ(gal-uvrB) supE44) expressing the AcrAB TolC EP at its basal level and its AcrAB-TolC deleted mutant E. coli K-12 AG100 A strain. The strains were donated by Prof. Dr. Hiroshi Nikaido (Department of Molecular and Cell Biology and Chemistry, University of California, Berkeley, CA, USA).
as §2

[6] = tested on: S. aureus 272123 (MRSA); assay: as above; assay type: cell-based, Staphylococcus aureus; details: 18 h, visual inspection
Experimental: as §3, §2

[7] = tested on: E. coli AG100; assay: Resistance modulation (MIC reduction) assay with CIP and TET; assay type: cell-based, Escherichia coli; details: compound at ¼ MIC, value is the MIC of ciprofloxacin
Experimental: The resistance modulation effects of compounds with ciprofloxacin (CIP) and tetracycline (TET) antibiotics were evaluated by the MIC reduction method on the Gram-negative E. coli AG100, AG100 A, and the Gram-positive S. aureus ATCC and MRSA strains.
The chemosensitizing activity of benzoxazole-type ligands and their metal complexes was determined based on the MIC values of the antibiotics in the presence of sub-inhibitory concentrations of the compounds (¼ MIC) in both Gram-negative and Gram-positive strains. The MICs were determined in strains by the two-fold broth microdilution method in 96-well plates, using serial dilutions of TET and CIP. The first four rows contained two-fold dilutions of antibiotics, and combinations of the TET and CIP and tested compounds were transferred into the last four rows. The 10^−4 dilution of an overnight bacterial culture in 50 μL of MHB was then measured to each well, except for the medium control wells. The plates were kept at 37 °C for 18 h. MIC values of antibiotics and their combination with tested compounds were detected by visual inspection.

[8] = tested on: E. coli AG100; assay: Minimum inhibitory concentration (broth microdilution, CLSI); assay type: cell-based, Escherichia coli; details: E. coli AG100, 18 h, visual inspection, read-out: MIC
Experimental: The strains were donated by Prof. Dr. Hiroshi Nikaido (Department of Molecular and Cell Biology and Chemistry, University of California, Berkeley, CA, USA).
as §2

[9] = tested on: E. coli AG100; assay: Real-time ethidium bromide accumulation (efflux pump inhibition, AcrAB-TolC); assay type: cell-based, Escherichia coli; details: compounds at ¼ MIC, EB 1 μg/mL, minute 30
Experimental: as §4, §5, §6

[10] = E. coli AG100 A (AcrAB-TolC deleted), visual inspection

`O=C(Cc1nc2ccccc2o1)C(F)F` [Compound 3] was tested, and the MIC ([1]; Chromobacterium violaceum) was over 100 µM, the MIC ([2]; Enterobacter cloacae) was over 100 µM and the MIC ([3]; Staphylococcus aureus, ATCC25923) was 100 µM (≈ 21.1 µg/mL). The “Relative fluorescence index (RFI)” value [4] was −0.03, the MIC ([5]; Escherichia coli, AG100A) was 25 µM (≈ 5.28 µg/mL) and the MIC [6] was 50 µM (≈ 10.6 µg/mL). For the same molecule, the MIC ([6]; Staphylococcus aureus) was 50 µM (≈ 10.6 µg/mL), the “CIP MIC in combination with compounds” value [7] was 0.016 µM and the MIC ([8]; Escherichia coli) was 50 µM (≈ 10.6 µg/mL). For the same molecule, the “Relative fluorescence index (RFI)” value [9] was −0.07.
`[O-]C(=Cc1nc2ccccc2o1)C(F)(F)Cl.[O-]C(=Cc1nc2ccccc2o1)C(F)(F)Cl.[Zn+2]` [Compound 5] gave an MIC [1] of over 100 µM, an MIC [2] of over 100 µM and an MIC [3] of 12.5 µM. The “Relative fluorescence index (RFI)” value [4] was −0.19, the MIC [5, 10] was 12.5 µM and the MIC [6] was 3.125 µM. The “CIP MIC in combination with compounds” value [7] was 0.016 µM, the MIC [8] was 50 µM and the “Relative fluorescence index (RFI)” value [9] was 0.37.
For `[Fe+3].[O-]C(=Cc1nc2ccccc2o1)C(F)(F)F.[O-]C(=Cc1nc2ccccc2o1)C(F)(F)F.[O-]C(=Cc1nc2ccccc2o1)C(F)(F)F` [Compound 12], the MIC [1] was over 100 µM, the MIC [2] was over 100 µM and the MIC [3] was 50 µM. For the same molecule, the “Relative fluorescence index (RFI)” value [4] was 0.09, the MIC [5, 10] was 50 µM and the MIC [6] was 25 µM. For the same molecule, the “CIP MIC in combination with compounds” value [7] was 0.016 µM, the MIC [8] was over 100 µM and the “Relative fluorescence index (RFI)” value [9] was 0.04.
